# From patent US20230002389A1, “ADENINE ANALOGS, PRODRUGS, DERIVATIVES, COMPOSITIONS AND USES THEREOF” (priority 2021, published 2023)
# “And” between values parts separate entries of the source, which are not always exact repeats. Identical values can stand only once. Like-named read-outs stand apart in the source and are kept apart here.
# Experiments:
# [1] = Pharmacokinetic analysis of T1-1 as a prodrug of MRS5474: plasma PK in mice after i.v. and p.o. dosing; type: in vivo, Male CD-1 mice; parameters: AUClast/D: unit not given here; conditions: CD-1 mice; for MRT inf: read-out: MRTInf_obs
# Protocol: Pharmacokinetic Analysis of Compound T1-1 for Determination Utility as a Prodrug of MRS5474:
# The dosing formulation (for i.v.) of T1-1 for mouse PK studies were prepared as 0.27 mg/mL solution of 10% DMSO+50% PEG400+40% WATER (Dissolved 1.19 mg of T1-1 in 0.441 mL of DMSO with vortexing and sonication, then added 2.204 mL of PEG400 and 1.763 mL of H2O with vortexing to obtain a solution). The dosing formulation (for p.o.) of T1-1 for mouse PK studies were prepared 2.71 mg/mL solution of 10% DMSO+50% PEG400+40% WATER (Dissolved 10.17 mg of in 0.375 mL of DMSO with vortexing and sonication, then added 1.876 mL […] of PEG400 and 1.501 mL of H2O with vortexing to obtain a solution.)
# Animals: Male CD-1 mice (6-8 weeks of age), weighing 20-22 g; all animals were allowed to acclimate to this environment for one week prior to experimental manipulations.
# Study Design: Study design The CD1 mice were given a single dose of T1-1 by bodyweight via intravenous (i.v.), or via oral gavage (p.o) administration. The blood and brain tissue samples were collected at intervals (h) of 0, 0.5, 1, 2, 4, 8, and 24. (n=3, each time point).
# Plasma Sample Preparation: Approximately 0.3 mL blood will be collected at each time point. After collecting the blood at each time point, add 250 to 300 μL of the blood sample to Eppendorf tube containing EDTA solution+10 μL of inhibitor stock and vortexed for 15 minutes and then centrifugation at 4000 g for 5 minutes in a 4° C. centrifuge to obtain plasma.
# The desired serial concentrations of working solutions were achieved by diluting a stock solution of the analyte with 50% acetonitiile in water solution. 5 μL of working solutions (5, 10, 20, 50, 100, 500, 1000, 5000, 10000 ng/mL) were added to 50 μL of the blank CD1 Mouse plasma to achieve calibration standards of 0.5-1000 ng/mL (0.5, 1, 2, 5, 10, 50, 100, 500, 1000 ng/mL) in a total volume of 55 μL. Five quality control samples at 1 ng/mL, 2 ng/mL, 5 ng/mL, 50 ng/mL, and 800 ng/mL for plasma were prepared independently of those used for the calibration curves. These QC samples were prepared on the day of analysis in the same way as calibration standards. 55 μL standards, 55 μL QC samples and 55 unknown samples (50 μL plasma with 5 μL blank solution) were added to 200 μL of acetonitrile containing IS mixture for precipitating protein respectively. Then the samples were vortexed for 30 s. After centrifugation at 4 degree Celsius, 3900 rpm for 15 min, the supernatant was diluted 3 times with water. 1 μL of diluted supernatant was injected into the LC/MS/MS system for quantitative analysis using (Shimadzu-DGU-20A5 integrated with AB AP15500 LCMS/MS instrument) with to determine plasma concentrations of T1-1 and the metabolite (parent compound) MRA5474. The data were analyzed for test article T1-1 and the metabolite (parent compound) MRA5474 for PK profile.
# The mobile phase consisted of acetonitrile and water mixtures, solution A: 5% acetonitrile (0.1% formic acid) and solution B: 95% acetonitrile (0.1% formic acid) with gradient elution from 90 to 10% solution A over 1.71 min. The flow rate was 0.7 mL/min. YMC Triart C18 5 μm (50×2.1 mm) column was used for the separation of the sample components.
# Results: Summary of IV and PO of Plasma Pharmacokinetic Parameters
# Homer 1a = assay: Quantitative real-time PCR analysis of brain tissue after oral gavage of T1-1; type: in vivo, Male CD1 mice; conditions: PO(2 h); for % Vehicle Mean: group mean of 3 mice; for % Vehicle Average / % Vehicle n = 1 / % Vehicle n = 2 / Relative mRNA expression (2^(−ΔCt)) Average / Relative mRNA expression(2^(−ΔCt)) n = 1 / Relative mRNA expression(2^(−ΔCt)) n = 2: individual mice M31-M33
# Protocol: Quantitative Real-Time PCR Analysis
# Male CD1 mice were administered vehicle and test compound (T1-1) by oral gavage. After 2 hours, the were decapitated, and their brain samples were collected. Total RNA from the brain tissue were isolated using […], RNA integrity was confirmed, and the concentration was quantified by measuring the optical density. Reverse transcription was performed (Invitrogen) for cDNA synthesis according to the manufacturer's instructions. Real-time qPCR was performed on Real-Time PCR System using SYBR Green. The amplification reactions were performed as per the supplier's protocol.
# [2] = IV(plasma), T1-1 dosed 1.35 mg/kg
# [3] = IV(plasma), T1-1 dosed 1.35 mg/kg, analyte = label
# [4] = PO(plasma), T1-1 dosed 13.55 mg/kg
# [5] = male, mouse, IV(plasma), T1-1 dosed 1.35 mg/kg, analyte = label
# [6] = male, mouse, IV(plasma), T1-1 dosed 1.35 mg/kg, analyte = label (T1-1 or metabolite MRS5474)
# [7] = male, mouse, PO(plasma), T1-1 dosed 13.55 mg/kg, analyte = label
compound,measurement,setting,value
"O=C(NCN(c1nc(Cl)nc2c1ncn2[C@H]1[C@H](O)[C@H](O)[C@@H]2C[C@@H]21)C(C1CC1)C1CC1)c1ccccc1 [Compound T1-1, N-(((2-chloro-9-((1S,2R,3S,4R,5R)-3,4-dihydroxybicyclo [3.1.0]hexan-2-yl)-9H-purin-6-yl) (dicyclopropylmethyl)amino)methyl) benzamide]",AUClast/D,[1]; [2],289.77
same,Vss_obs,[1]; [2],1.57 L/kg
same,AUC_% Extrap_obs,[1]; [3],0.93%
same,Cl_obs,[1]; [3],56.98 mL/min/kg
same,AUClast/D,[1]; [4],34.47
same,F,[1]; [4],11.90%
same,AUC(0-inf),[1]; [5],395 ng·h/mL
same,AUC(0-t),[1]; [5],391 ng·h/mL
same,C0,[1]; [5],613 ng/mL
same,half-life,[1]; [6],17.4 min
same,MRT inf,[1]; [5],0.46 h
same,AUC(0-t),[1]; [7],467 ng·h/mL
same,Cmax,[1]; [7],132 ng/mL
same,Tmax,[1]; [7],0.5 h
same,% Vehicle Mean,Homer 1a; Homer 1a mRNA vs Actin,112.74%
same,% Vehicle Average,Homer 1a; Homer 1a mRNA vs Actin,131.98% and 104.88% and 101.37%
same,% Vehicle n = 1,Homer 1a; Homer 1a mRNA vs Actin,123.98% and 96.37% and 100.64%
same,% Vehicle n = 2,Homer 1a; Homer 1a mRNA vs Actin,139.98% and 113.39% and 102.10%
same,% Vehicle Mean,Homer 1a; Homer 1a mRNA vs GAPDH,66.54%
same,% Vehicle Average,Homer 1a; Homer 1a mRNA vs GAPDH,75.27% and 51.17% and 73.18%
same,% Vehicle n = 1,Homer 1a; Homer 1a mRNA vs GAPDH,72.27% and 49.10% and 72.10%
same,% Vehicle n = 2,Homer 1a; Homer 1a mRNA vs GAPDH,78.27% and 53.24% and 74.26%
same,Relative mRNA expression (2^(−ΔCt)) Average,Homer 1a; Homer 1a vs Actin,0.51 and 0.41 and 0.40
same,Relative mRNA expression(2^(−ΔCt)) n = 1,Homer 1a; Homer 1a vs Actin,0.48 and 0.38 and 0.39
same,Relative mRNA expression(2^(−ΔCt)) n = 2,Homer 1a; Homer 1a vs Actin,0.55 and 0.44 and 0.40
same,Relative mRNA expression (2^(−ΔCt)) Average,Homer 1a; Homer 1a vs GAPDH,0.1187 and 0.0807 and 0.1154
same,Relative mRNA expression(2^(−ΔCt)) n = 1,Homer 1a; Homer 1a vs GAPDH,0.1140 and 0.0774 and 0.1137
same,Relative mRNA expression(2^(−ΔCt)) n = 2,Homer 1a; Homer 1a vs GAPDH,0.1234 and 0.0840 and 0.1171
"O[C@@H]1[C@H](O)[C@@H]2C[C@@H]2[C@H]1n1cnc2c(NC(C3CC3)C3CC3)nc(Cl)nc21 [MRS5474, (1R,2R,3S,4R,5S)-4-(2-chloro-6-((dicyclopropylmethyl)amino)-9H-purin-9-yl) bicyclo [3.1.0] hexane-2,3-diol, reference compound]",AUC_% Extrap_obs,[1]; [3],2.62%
same,AUC_% Extrap_obs,"[1]; PO(plasma), T1-1 dosed 13.55 mg/kg, analyte = label",0.08%
same,AUC(0-inf),[1]; [5],321 ng·h/mL
same,AUC(0-t),[1]; [5],313 ng·h/mL
same,Cmax,[1]; [5],127 ng/mL
same,Tmax,[1]; [5],1 h
same,half-life,[1]; [6],93 min
same,MRT inf,[1]; [5],2.32 h
same,AUC(0-inf),[1]; [7],6990 ng·h/mL
same,AUC(0-t),[1]; [7],6990 ng·h/mL
same,Cmax,[1]; [7],522 ng/mL
same,Tmax,[1]; [7],1 h
same,half-life,[1]; [7],139 min
same,MRT inf,[1]; [7],6.36 h
